Reference: ChEMBL document CHEMBL4431322, “Timosaponin AIII inhibits migration and invasion of A549 human non-small-cell lung cancer cells via attenuations of MMP-2 and MMP-9 by inhibitions of ERK1/2, Src/FAK and β-catenin signaling pathways” (2016)
Active and inactive are the calls of the source. The calls are words filed in the database; no cut-off is given here.

Columns and labels:
NCI-H1299 [1] = experiment: Inhibition of cell invasion in human H1299 cells at 1 to 3 uM after 24 hrs by Boyden's chamber transwell invasion assay; format: functional, cell-based
[2] = molecular target: Focal adhesion kinase 1 (Homo sapiens) (UniProt Q05397); experiment: Inhibition of FAK phosphorylation in human A549 cells at 3 to 9 uM after 24 hrs by Western blot analysis; format: cell-based
A549 [3] = experiment: Antimigratory activity in human A549 cells incubated for 24 hrs by wound healing assay; format: functional, cell-based
NCI-H1299 [4] = experiment: Inhibition of MMP2 mRNA expression in human H1299 cells at 3 uM after 48 hrs by RT-PCR analysis; format: functional, cell-based
A549 [5] = experiment: Cell cycle arrest in human A549 cells assessed as accumulation at G0/G1 phase at 9 uM after 24 hrs by flow cytometry (reference value: 66.5%); format: functional
[6] = molecular target: T1, Catenin beta-1 (Homo sapiens) (UniProt P35222); experiment: Inhibition of beta-catenin signalling in human A549 cells assessed as reduction in beta-catenin level at 3 to 9 uM after 24 hrs by Western blot analysis; format: cell-based
T1 sequence (whole entry): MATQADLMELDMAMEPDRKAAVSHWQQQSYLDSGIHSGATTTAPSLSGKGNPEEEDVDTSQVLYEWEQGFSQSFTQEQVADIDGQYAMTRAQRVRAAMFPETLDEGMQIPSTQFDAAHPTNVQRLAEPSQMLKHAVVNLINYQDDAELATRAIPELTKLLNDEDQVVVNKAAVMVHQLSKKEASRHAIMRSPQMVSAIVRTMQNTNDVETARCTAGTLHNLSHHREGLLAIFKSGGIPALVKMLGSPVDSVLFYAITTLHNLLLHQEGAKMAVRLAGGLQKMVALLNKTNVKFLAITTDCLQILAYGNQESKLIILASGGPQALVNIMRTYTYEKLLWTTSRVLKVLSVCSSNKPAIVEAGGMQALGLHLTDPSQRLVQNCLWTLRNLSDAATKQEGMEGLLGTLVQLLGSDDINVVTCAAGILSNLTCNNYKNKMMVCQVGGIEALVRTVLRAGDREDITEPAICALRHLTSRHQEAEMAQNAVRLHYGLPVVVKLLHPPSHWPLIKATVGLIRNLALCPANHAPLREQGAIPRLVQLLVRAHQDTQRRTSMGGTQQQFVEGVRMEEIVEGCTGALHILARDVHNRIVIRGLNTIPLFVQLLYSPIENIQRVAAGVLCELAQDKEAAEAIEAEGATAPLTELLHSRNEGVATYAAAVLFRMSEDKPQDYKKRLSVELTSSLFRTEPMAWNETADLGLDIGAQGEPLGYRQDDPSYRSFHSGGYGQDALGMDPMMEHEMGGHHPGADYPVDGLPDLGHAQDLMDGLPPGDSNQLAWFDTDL

A549 [7] = experiment: Induction of apoptosis in human A549 cells assessed as early apoptotic cells at 9 uM after 24 hrs by flow cytometry (reference value: 15.45%); format: functional
A549 [8] = experiment: Inhibition of MMP2 mRNA expression in human A549 cells at 3 uM after 48 hrs by RT-PCR analysis; format: functional, cell-based
A549 [9] = experiment: Cytotoxicity against human A549 cells assessed as cell survival up to 10 uM incubated for 24 hrs by CCK8 assay; format: functional
A549 [10] = experiment: Inhibition of cell invasion in human A549 cells at 1 to 3 uM after 24 hrs by Boyden's chamber transwell invasion assay; format: functional, cell-based
A549 [11] = experiment: Induction of apoptosis in human A549 cells assessed as late apoptotic cells at 9 uM after 24 hrs by flow cytometry (reference value: 7.9%); format: functional
[12] = molecular target: 72 kDa type IV collagenase (Homo sapiens) (UniProt P08253); experiment: Inhibition of MMP2 activity in human H1299 cells at 3 uM after 48 hrs by gelatin zymography; format: cell-based
A549 [13] = experiment: Induction of apoptosis in human A549 cells assessed as live cells at 9 uM after 24 hrs by flow cytometry (reference value: 76.65%); format: functional
NCI-H1299 [14] = experiment: Inhibition of MMP9 mRNA expression in human H1299 cells at 3 uM after 48 hrs by RT-PCR analysis; format: functional, cell-based
[15] = molecular target: MAP kinase p38 (Homo sapiens) (UniProt O15264+Q15759+Q16539+P53778); experiment: Inhibition of p38 phosphorylation in human A549 cells at 3 to 9 uM after 24 hrs by Western blot analysis; format: cell-based
NCI-H1299 [16] = experiment: Antimigratory activity in human H1299 cells at 1 to 6 uM incubated for 24 hrs by wound healing assay; format: functional, cell-based
A549 [17] = experiment: Cell cycle arrest in human A549 cells assessed as accumulation at S phase at 9 uM after 24 hrs by flow cytometry (reference value: 18.3%); format: functional
[18] = molecular target: Proto-oncogene tyrosine-protein kinase Src (Homo sapiens) (UniProt P12931); experiment: Inhibition of c-Src phosphorylation in human A549 cells at 3 to 9 uM after 24 hrs by Western blot analysis; format: cell-based
[19] = molecular target: Matrix metalloproteinase-9 (Homo sapiens) (UniProt P14780); experiment: Inhibition of MMP9 activity in human A549 cells at 3 to 9 uM after 48 hrs by gelatin zymography; format: cell-based
[20] = molecular target: Matrix metalloproteinase-9 (Homo sapiens) (UniProt P14780); experiment: Inhibition of MMP9 activity in human H1299 cells at 3 uM after 48 hrs by gelatin zymography; format: cell-based
A549 [21] = experiment: Inhibition of MMP9 mRNA expression in human A549 cells at 3 uM after 48 hrs by RT-PCR analysis; format: functional, cell-based
A549 [22] = experiment: Induction of apoptosis in human A549 cells assessed as dead cells at 9 uM after 24 hrs by flow cytometry (reference value: 0%); format: functional
[23] = molecular target: c-Jun N-terminal kinase, JNK (Homo sapiens) (UniProt P45983+P53779+P45984); experiment: Inhibition of JNK phosphorylation in human A549 cells at 3 to 9 uM after 24 hrs by Western blot analysis; format: cell-based
[24] = molecular target: 72 kDa type IV collagenase (Homo sapiens) (UniProt P08253); experiment: Inhibition of MMP2 activity in human A549 cells at 3 to 9 uM after 48 hrs by gelatin zymography; format: cell-based
A549 [25] = experiment: Cell cycle arrest in human A549 cells assessed as accumulation at G2/M phase at 9 uM after 24 hrs by flow cytometry (reference value: 15.1%); format: functional
[26] = molecular target: Mitogen-activated protein kinase; ERK1/ERK2 (Homo sapiens) (UniProt P27361+P28482); experiment: Inhibition of ERK1/2 phosphorylation in human A549 cells after 24 hrs by Western blot analysis; format: cell-based
Mitogen-activated protein kinase; ERK1/ERK2 (Homo sapiens), sequence (P27361 whole entry, looked up): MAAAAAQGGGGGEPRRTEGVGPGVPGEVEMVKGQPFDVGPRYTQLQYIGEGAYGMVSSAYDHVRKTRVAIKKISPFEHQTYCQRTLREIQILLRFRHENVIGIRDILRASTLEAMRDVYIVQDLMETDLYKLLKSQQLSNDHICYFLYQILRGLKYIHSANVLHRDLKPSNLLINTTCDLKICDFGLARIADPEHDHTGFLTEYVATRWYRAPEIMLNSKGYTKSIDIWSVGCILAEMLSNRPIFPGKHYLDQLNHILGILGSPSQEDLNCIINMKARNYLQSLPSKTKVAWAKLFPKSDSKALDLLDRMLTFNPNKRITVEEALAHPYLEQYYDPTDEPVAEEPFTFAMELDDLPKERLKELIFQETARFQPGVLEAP
Mitogen-activated protein kinase; ERK1/ERK2 (Homo sapiens), sequence (P28482 whole entry, looked up): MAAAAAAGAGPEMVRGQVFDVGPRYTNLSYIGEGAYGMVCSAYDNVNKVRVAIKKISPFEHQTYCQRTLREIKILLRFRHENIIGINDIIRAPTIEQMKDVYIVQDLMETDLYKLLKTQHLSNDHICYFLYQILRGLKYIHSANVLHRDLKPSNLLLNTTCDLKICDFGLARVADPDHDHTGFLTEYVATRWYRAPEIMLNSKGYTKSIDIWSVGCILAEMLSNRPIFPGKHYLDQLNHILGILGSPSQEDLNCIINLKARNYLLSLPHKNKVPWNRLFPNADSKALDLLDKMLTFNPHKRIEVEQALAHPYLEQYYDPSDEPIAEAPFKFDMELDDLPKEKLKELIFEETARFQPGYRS

72 kDa type IV collagenase (Homo sapiens), sequence (P08253 110-660 limits assumed): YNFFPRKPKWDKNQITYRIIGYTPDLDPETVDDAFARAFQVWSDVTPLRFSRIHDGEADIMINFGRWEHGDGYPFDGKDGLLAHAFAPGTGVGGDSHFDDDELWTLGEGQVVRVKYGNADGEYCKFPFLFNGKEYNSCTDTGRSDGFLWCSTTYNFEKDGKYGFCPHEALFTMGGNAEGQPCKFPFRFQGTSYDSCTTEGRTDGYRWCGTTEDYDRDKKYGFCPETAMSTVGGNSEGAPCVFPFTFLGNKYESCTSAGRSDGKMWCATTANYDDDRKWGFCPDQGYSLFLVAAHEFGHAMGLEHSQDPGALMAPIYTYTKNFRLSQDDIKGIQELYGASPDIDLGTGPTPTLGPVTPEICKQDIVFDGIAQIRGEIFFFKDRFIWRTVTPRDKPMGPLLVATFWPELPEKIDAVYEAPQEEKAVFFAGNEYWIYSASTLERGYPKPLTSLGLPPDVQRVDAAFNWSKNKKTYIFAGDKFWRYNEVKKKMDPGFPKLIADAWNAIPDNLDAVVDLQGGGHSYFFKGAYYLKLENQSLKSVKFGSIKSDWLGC
Matrix metalloproteinase-9 (Homo sapiens), sequence (P14780 whole entry): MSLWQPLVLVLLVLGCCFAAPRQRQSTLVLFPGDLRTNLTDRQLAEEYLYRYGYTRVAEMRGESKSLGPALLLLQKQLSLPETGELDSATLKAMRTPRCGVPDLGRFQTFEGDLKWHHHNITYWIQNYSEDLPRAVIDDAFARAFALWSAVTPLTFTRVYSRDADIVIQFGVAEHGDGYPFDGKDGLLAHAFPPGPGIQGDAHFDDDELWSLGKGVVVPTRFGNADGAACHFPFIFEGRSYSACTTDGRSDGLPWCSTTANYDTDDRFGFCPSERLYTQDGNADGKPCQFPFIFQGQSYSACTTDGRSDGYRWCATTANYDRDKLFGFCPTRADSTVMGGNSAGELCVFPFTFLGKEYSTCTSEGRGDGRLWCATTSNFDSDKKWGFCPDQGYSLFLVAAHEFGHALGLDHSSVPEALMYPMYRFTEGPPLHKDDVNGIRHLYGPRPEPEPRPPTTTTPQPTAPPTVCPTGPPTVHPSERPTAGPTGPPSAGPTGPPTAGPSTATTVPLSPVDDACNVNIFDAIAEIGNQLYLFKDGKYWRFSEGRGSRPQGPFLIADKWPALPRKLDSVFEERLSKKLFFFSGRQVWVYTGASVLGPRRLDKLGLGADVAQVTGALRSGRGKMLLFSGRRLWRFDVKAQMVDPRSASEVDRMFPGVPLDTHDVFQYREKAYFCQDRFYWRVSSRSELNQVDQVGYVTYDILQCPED
Proto-oncogene tyrosine-protein kinase Src (Homo sapiens), sequence (P12931 2-536 limits assumed): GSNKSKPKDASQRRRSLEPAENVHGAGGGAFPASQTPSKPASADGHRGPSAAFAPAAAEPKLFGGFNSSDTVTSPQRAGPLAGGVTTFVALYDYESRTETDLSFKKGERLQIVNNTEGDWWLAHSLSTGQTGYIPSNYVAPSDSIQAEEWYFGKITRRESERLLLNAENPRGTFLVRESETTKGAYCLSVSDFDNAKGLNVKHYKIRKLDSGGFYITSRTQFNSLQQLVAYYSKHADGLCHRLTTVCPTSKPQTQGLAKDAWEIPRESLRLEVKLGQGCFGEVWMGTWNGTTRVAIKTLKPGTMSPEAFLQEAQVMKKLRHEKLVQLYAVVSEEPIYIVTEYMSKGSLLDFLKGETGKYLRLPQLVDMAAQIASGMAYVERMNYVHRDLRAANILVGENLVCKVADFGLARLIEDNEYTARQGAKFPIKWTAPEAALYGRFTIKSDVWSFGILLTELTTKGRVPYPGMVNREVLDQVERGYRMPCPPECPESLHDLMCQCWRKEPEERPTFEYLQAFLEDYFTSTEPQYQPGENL
Focal adhesion kinase 1 (Homo sapiens), sequence (Q05397 2-1052 limits assumed): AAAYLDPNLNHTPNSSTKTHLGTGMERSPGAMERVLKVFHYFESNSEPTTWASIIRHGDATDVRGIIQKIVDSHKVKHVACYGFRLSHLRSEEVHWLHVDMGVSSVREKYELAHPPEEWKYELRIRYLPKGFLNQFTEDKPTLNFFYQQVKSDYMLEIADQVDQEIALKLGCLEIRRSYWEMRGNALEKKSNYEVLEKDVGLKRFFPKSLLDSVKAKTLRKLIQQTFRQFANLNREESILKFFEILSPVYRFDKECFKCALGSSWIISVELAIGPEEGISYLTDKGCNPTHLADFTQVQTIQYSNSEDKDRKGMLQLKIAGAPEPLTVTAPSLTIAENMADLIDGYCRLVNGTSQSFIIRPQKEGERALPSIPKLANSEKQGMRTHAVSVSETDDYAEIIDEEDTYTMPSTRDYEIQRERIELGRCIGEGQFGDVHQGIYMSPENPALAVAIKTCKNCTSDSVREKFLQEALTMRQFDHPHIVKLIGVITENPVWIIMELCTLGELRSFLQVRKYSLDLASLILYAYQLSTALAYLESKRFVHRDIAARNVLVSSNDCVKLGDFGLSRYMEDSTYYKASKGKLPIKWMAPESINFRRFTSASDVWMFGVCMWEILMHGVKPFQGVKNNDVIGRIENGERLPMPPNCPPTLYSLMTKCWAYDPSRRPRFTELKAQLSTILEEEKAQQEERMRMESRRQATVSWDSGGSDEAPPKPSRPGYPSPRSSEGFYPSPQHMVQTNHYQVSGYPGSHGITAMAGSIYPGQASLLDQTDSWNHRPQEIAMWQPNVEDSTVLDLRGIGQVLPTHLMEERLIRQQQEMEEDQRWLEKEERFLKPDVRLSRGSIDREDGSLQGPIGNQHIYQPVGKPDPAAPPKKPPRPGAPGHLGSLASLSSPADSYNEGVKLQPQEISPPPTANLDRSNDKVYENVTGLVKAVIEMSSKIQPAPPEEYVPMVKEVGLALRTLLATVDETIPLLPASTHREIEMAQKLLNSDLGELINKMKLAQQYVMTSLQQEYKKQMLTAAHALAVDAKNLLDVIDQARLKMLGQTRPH

In the case of `C[C@H]1CC[C@@]2(OC1)O[C@H]1C[C@H]3[C@@H]4CC[C@@H]5C[C@@H](O[C@@H]6O[C@H](CO)[C@@H](O)[C@H](O)[C@H]6O[C@@H]6O[C@H](CO)[C@@H](O)[C@H](O)[C@H]6O)CC[C@]5(C)[C@H]4CC[C@]3(C)[C@H]1[C@@H]2C`, the inhibition (NCI-H1299 [1]) is reported as “Active”, the inhibition [2] is reported as “Active” and the inhibition (A549 [3]) is reported as “Dose-dependent effect”. For the same molecule, the inhibition (NCI-H1299 [4]) was “Active”, the Activity (A549 [5]) was 74.8% and the inhibition [6] was “Active”. The Activity (A549 [7]) was 29.25%, the inhibition (A549 [8]) was “Active” and the Survival (A549 [9]) was <50%. The inhibition (A549 [10]) was “Active”, the Activity (A549 [11]) was 16.6% and the inhibition [12] was “Active”. For the same molecule, the Activity (A549 [13]) was 54.15%, the inhibition (NCI-H1299 [14]) was “Active” and the inhibition [15] was “inactive”. The inhibition (NCI-H1299 [16]) was “Active”, the Activity (A549 [17]) was 11.2% and the inhibition [18] was “Active”. The inhibition [19] was “Active”, the inhibition [20] was “Active” and the inhibition (A549 [21]) was “Active”. For the same molecule, the Activity (A549 [22]) was 0%, the inhibition [23] was “inactive” and the inhibition [24] was “Active”. The Activity (A549 [25]) was 14% and the inhibition [26] was “Dose-dependent effect”.
